31 compounds from ChEMBL document CHEMBL4837260, “Structure-Guided Design of a Small-Molecule Activator of Sirtuin-3 that Modulates Autophagy in Triple Negative Breast Cancer” (J Med Chem, 2021) can be followed below.

The structures appear in SMILES notation.

Series [1] deals with T1, NAD-dependent protein deacetylase sirtuin-3, mitochondrial (Homo sapiens, UniProt Q9NTG7).
T1 sequence (Q9NTG7 whole entry): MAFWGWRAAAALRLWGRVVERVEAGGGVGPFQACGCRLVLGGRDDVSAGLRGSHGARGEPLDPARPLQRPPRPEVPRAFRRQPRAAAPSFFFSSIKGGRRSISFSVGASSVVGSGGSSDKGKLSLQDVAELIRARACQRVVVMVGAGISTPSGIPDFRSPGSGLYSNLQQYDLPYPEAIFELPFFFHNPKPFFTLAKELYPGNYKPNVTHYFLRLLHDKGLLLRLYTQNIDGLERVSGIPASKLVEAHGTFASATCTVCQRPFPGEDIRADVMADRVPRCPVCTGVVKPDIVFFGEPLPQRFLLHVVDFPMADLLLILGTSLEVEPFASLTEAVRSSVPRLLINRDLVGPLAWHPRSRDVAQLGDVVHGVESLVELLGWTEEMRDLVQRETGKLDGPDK
Nature of the series: Activation of recombinant human SIRT3 assessed as lysyl deacetylase activity using (Gln-Pro-Lys-Lys(Ac)) peptide substrate by fluorescent assay.

The next series deals with HL-60. The series is described as follows: Antiproliferative activity against human HL-60 cells measured after 24 hrs by MTT assay. The format is functional, cell-based. As to conditions: HL-60, 24 h. On the technique in general: Formazan colour is commonly taken as a measure of viable cells.
A further series relates to U-937. The series is described as follows: Antiproliferative activity against human U-937 cells measured after 24 hrs by MTT assay. The format is functional, cell-based. To be noted: U-937, 24 h.
The test system of a further series is MCF7. Nature of the series: Antiproliferative activity against human MCF7 cells measured after 24 hrs by MTT assay. The series is classed as functional, cell-based. To be noted: MCF7, 24 h.
A further series relates to MDA-MB-231. Nature of the series: Antiproliferative activity against human MDA-MB-231 cells measured after 24 hrs by MTT assay. The series is classed as functional, cell-based. As to conditions: MDA-MB-231, 24 h.
Series [2] can be described thus: Toxicity in BALB/c mouse xenografted with human MDA-MB-231 cells assessed as change in body weight at 25 mg/kg once daily for 1 week. The series is classed as organism-based. To be noted: in vivo, 168 h, time 1 weeks. For orientation: A xenograft is tissue or cells of one species grown in another, often human tumour cells in immunodeficient mice.
Series [3] in a line: Toxicity in BALB/c mouse xenografted with human MDA-MB-231 cells assessed as change in body weight at 100 mg/kg once daily for 1 week. The format is organism-based. To be noted: in vivo, 168 h, time 1 weeks.
Series [4] in a line: Toxicity in BALB/c mouse xenografted with human MDA-MB-231 cells assessed as widening of the pulmonary septum and more cellular components at 100 mg/kg once daily for 1 week by H&E staining. The series is classed as organism-based. To be noted: in vivo, 168 h, time 1 weeks.

Turning to `CCCCc1oc2ccccc2c1C(=O)c1cc(I)c(OCCN2CCCC2)c(I)c1`, the EC50 (usually the concentration at which the effect is half-maximal) in series [1] worked out at 16.2 µM. The IC50 (commonly the point on the concentration scale where inhibition reaches its midpoint) with HL-60 is 23.2 µM; in the series with U-937, 31.7 µM; in the series with MCF7, more than 50 µM; in the series on MDA-MB-231, 20.4 µM.

Turning to `CCCCc1oc2ccccc2c1C(=O)c1cc(I)c(OCCN(C)C)c(I)c1`, the EC50 in series [1] came out at 4.69 µM. In addition, the IC50 turned out to be 8.22 µM in the series on HL-60, 8.68 µM in the series with U-937, 39.4 µM in the series with MCF7 and 6.6 µM in the series with MDA-MB-231.

Take `CCCCc1oc2ccccc2c1C(=O)c1ccc(OCCN(CC)CC)cc1`: the IC50 in the series with HL-60 worked out at 2.77 µM; with U-937 it was 3.47 µM; in the series on MCF7, 5.26 µM; in the series with MDA-MB-231, 19.4 µM.

On to `CCCCc1oc2ccccc2c1C(=O)c1cc(I)c(OCCCN2CCN(Cc3ccccc3)CC2)c(I)c1`, for which the IC50 in the series on HL-60 was more than 50 µM; with U-937, 41.4 µM; in the series on MCF7, 28.7 µM; in the series with MDA-MB-231, 15.7 µM.

`CCCCc1oc2ccccc2c1C(=O)c1cc(I)c(OCCCNCc2ccccc2)c(I)c1`: the EC50 in series [1] was 10.7 µM. In addition, the IC50 is 4.4 µM in the series with HL-60, 2.3 µM with U-937, 8.05 µM in the series with MCF7 and 11.6 µM in the series with MDA-MB-231.

With `CCCCc1oc2ccccc2c1C(=O)c1ccc(OCC(N)=O)cc1`, the IC50 was more than 50 µM in the series with HL-60, 42.2 µM with U-937, more than 50 µM in the series with MCF7 and more than 50 µM in the series with MDA-MB-231.

Take `CCCCc1oc2ccccc2c1C(=O)c1ccc(OCC(=O)Nc2cccc(OC)c2)cc1`: the IC50 is more than 50 µM with HL-60, 24.2 µM in the series on U-937, 38.5 µM with MCF7 and more than 50 µM with MDA-MB-231.

Regarding `CCCCc1oc2ccccc2c1C(=O)c1ccc(OCCCC(=O)N(C)Cc2ccccc2)cc1`, the half-maximal inhibitory concentration (IC50) in the series with HL-60 is more than 50 µM; with U-937 it was 10.5 µM; in the series with MCF7 it was more than 50 µM; in the series with MDA-MB-231, more than 50 µM.

For `CCCCc1oc2ccccc2c1C(=O)c1cc(I)c(OCCCN(C)Cc2ccccc2)c(I)c1`, the IC50 was 8.51 µM with HL-60, 6.86 µM with U-937, 8.02 µM in the series on MCF7 and 54 µM in the series on MDA-MB-231.

Take `CCCCNC(=O)COc1ccc(C(=O)c2c(CCCC)oc3ccccc23)cc1`: the EC50 in series [1] is 18.9 µM. Besides, the IC50 in the series on HL-60 was more than 50 µM; in the series with U-937, 22.8 µM; in the series on MCF7, more than 50 µM; with MDA-MB-231, 34.5 µM.

For the compound `CCCCc1oc2ccccc2c1C(=O)c1ccc(OCCCC(=O)N[C@H](C)c2ccccc2)cc1`, the IC50 in the series on HL-60 is more than 50 µM; in the series on U-937, 30.7 µM; in the series on MCF7, more than 50 µM; in the series with MDA-MB-231 it was more than 50 µM.

For the compound `CCCCc1oc2ccccc2c1C(=O)c1cc(I)c(OCCCC2CCCC2)c(I)c1`, the half-maximal inhibitory concentration (IC50) with HL-60 is more than 50 µM; with U-937 it was 42.2 µM; in the series with MCF7, more than 50 µM; with MDA-MB-231, more than 50 µM.

`CCCCNC(=O)CCCOc1ccc(C(=O)c2c(CCCC)oc3ccccc23)cc1`: the EC50 in series [1] stood at 16.7 µM. The IC50 is more than 50 µM in the series with HL-60, 24.6 µM in the series on U-937, more than 50 µM in the series with MCF7 and 38.1 µM in the series with MDA-MB-231.

`CCCCc1oc2ccccc2c1C(=O)c1ccc(OCC(=O)N[C@@H](C)c2ccccc2)cc1`: the IC50 is more than 50 µM with HL-60, 33.8 µM with U-937, 17.9 µM in the series with MCF7 and more than 50 µM with MDA-MB-231.

In the case of `CCCCc1oc2ccccc2c1C(=O)c1ccc(OCCCC(=O)NCc2ccccc2)cc1`, the half-inhibitory concentration (IC50) in the series on HL-60 is 28.9 µM; in the series with U-937, 15.8 µM; in the series with MCF7 it was 49.7 µM; in the series on MDA-MB-231, more than 50 µM.

On to `CCCCc1oc2ccccc2c1C(=O)c1ccc(OCC(=O)NCc2ccccc2)cc1`, for which the IC50 is more than 50 µM in the series on HL-60, 16.3 µM in the series on U-937, 19.6 µM in the series with MCF7 and more than 50 µM in the series with MDA-MB-231.

With `CCCCc1oc2ccccc2c1C(=O)c1cc(I)c(OCCCN2CCCC2)c(I)c1`, the Activity result in series [2], in series [3] and in series [4] was “Non-Toxic” throughout.

As for `CCCCc1oc2ccccc2c1C(=O)c1cc(I)c(OCCCN2CCN(C)CC2)c(I)c1`, the EC50 in series [1] came out at 3.46 µM. The IC50 was more than 50 µM in the series on HL-60, more than 50 µM in the series on U-937, 5.37 µM with MCF7 and 8.76 µM in the series on MDA-MB-231.

As for `CCCCc1oc2ccccc2c1C(=O)c1cc(Cl)c(OCCCN2CCCC2)c(Cl)c1`, the concentration for a half-maximal effect (EC50) in series [1] is 0.81 µM. Besides, the IC50 was determined as 11.3 µM with HL-60, 25.2 µM in the series on U-937, 27.7 µM in the series on MCF7 and 28.2 µM in the series with MDA-MB-231.

As to `CCCCc1oc2ccccc2c1C(=O)c1cc(I)c(OCCCN(CC)CC)c(I)c1`, the EC50 in series [1] worked out at 4.15 µM. The IC50 came out at 16 µM in the series on HL-60, 30 µM in the series with U-937, 21.5 µM in the series with MCF7 and 26.8 µM with MDA-MB-231.

For `CCCCc1oc2ccccc2c1C(=O)c1ccc(OCC(=O)N2CCCCC2)cc1`, the EC50 in series [1] is 2.68 µM. Also, the IC50 in the series with HL-60 was more than 50 µM; with U-937, 37.1 µM; in the series with MCF7, more than 50 µM; in the series with MDA-MB-231, more than 50 µM.

On to `CCCCc1oc2ccccc2c1C(=O)c1ccc(OCC(=O)N2CCOCC2)cc1`, for which the EC50 in series [1] was determined as 1.23 µM. The IC50 is more than 50 µM with HL-60, 45.4 µM with U-937, 34 µM in the series on MCF7 and more than 50 µM in the series on MDA-MB-231.

For the compound `CCCCc1oc2ccccc2c1C(=O)c1ccc(OCCCC(=O)N2CCCCC2)cc1`, in series [1], the EC50 was 2.38 µM. The IC50 in the series on HL-60 was 31.9 µM; with U-937, 16.6 µM; in the series with MCF7 it was 33 µM; in the series with MDA-MB-231 it was 36 µM.

Consider `CCCCc1oc2ccccc2c1C(=O)c1cc(I)c(OCCCN2CCCCC2)c(I)c1`, for which the EC50 in series [1] is 1.65 µM. In addition, the IC50 worked out at 11.5 µM with HL-60, 18.2 µM in the series with U-937, 37.9 µM in the series with MCF7 and 15.7 µM in the series on MDA-MB-231.

Take `CCCCc1oc2ccccc2c1C(=O)c1ccc(OCCCC(=O)N[C@@H](C)c2ccccc2)cc1`: the EC50 in series [1] came out at 7.01 µM. Further, the IC50 in the series on HL-60 is more than 50 µM; with U-937 it was 22.4 µM; in the series on MCF7, more than 50 µM; in the series with MDA-MB-231, more than 50 µM.

`CCCCc1oc2ccccc2c1C(=O)c1ccc(OCCCC(=O)N2CCOCC2)cc1`: in series [1], the EC50 was 3.02 µM. For the same compound, the IC50 in the series with HL-60 worked out at 34 µM; with U-937 it was 21.4 µM; with MCF7 it was 41.2 µM; in the series with MDA-MB-231, 31.6 µM.

For the compound `CCCCc1oc2ccccc2c1C(=O)c1ccc(OCC(=O)N[C@H](C)c2ccccc2)cc1`, in series [1], the EC50 came to 17.4 µM. Besides, the IC50 with HL-60 was more than 50 µM; with U-937, 19.8 µM; in the series with MCF7, 14.1 µM; with MDA-MB-231, 39 µM.

For the compound `CCCCc1oc2ccccc2c1C(=O)c1ccc(OCCCN2CCCC2)cc1`, the IC50 was found to be 6.38 µM with HL-60, 6.82 µM with U-937, 3.73 µM in the series on MCF7 and 19.5 µM in the series with MDA-MB-231.

Consider `CCCCc1oc2ccccc2c1C(=O)c1cc(I)c(OCCN(CC)CC)c(I)c1` [AMIODARONE], for which the EC50 in series [1] is 3.25 µM.

On to `C=CCc1ccc(O)c(-c2ccc(O)c(CC=C)c2)c1` [HONOKIOL], for which the EC50 in series [1] turned out to be 0.17 µM. Also, the IC50 with MDA-MB-231 was found to be 44.9 µM.

With `Oc1ccc(/C=C/c2cc(O)cc(O)c2)cc1` [RESVERATROL], the 50% effective concentration (EC50) in series [1] was determined as 55.2 µM. Moreover, the IC50 in the series with MDA-MB-231 is 98.8 µM.
